Key:
Assay type in all cases: cell-based
MKN45 cells = test: MKN45 cell proliferation assay (Cell-Titer-Glo, 120 hr); settings: for EC50: Homo sapiens, MKN-45, 120 h, read-out: MKN45 Cell Prolif. 120 hr EC50; for MKN45 Cell Prolif. 120 hr YMin (%): minimal percent of DMSO control observed
Summary of the method: (§1)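 Growth inhibition was read as CellTiter-Glo luminescence after 120 h at 37 °C in RPMI/10% FBS, with 400 MKN45 or 800 MDA-MB-231 cells seeded per well. Compounds were tested in 10-point half-log series starting at 1 or 10 uM (0.1% DMSO), in triplicate for MKN45 and duplicate for MDA-MB-231. EC50 values are four-parameter fits to %DMSO control, and Ymin-obs is the minimal observed %DMSO.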

WEE1 = target: T1, WEE1 (Homo sapiens, UniProt P30291+Q96SW2); test: WEE1-ePL degradation assay (293T-LentiX, InCELL Hunter luminescence, 4 hr); settings: for DC50: LentiX-HEK293T cells expressing WEE1-ePL, 4 hr incubation, read-out: 293T-LentiX WEE1-ePL Degradation 4 hr EC50; for 293T-LentiX WEE1-ePL Degradation 4 hr YMin (%): lower limit of fit, % of DMSO control signal remaining
T1 construct: C-terminal ePL-tagged (DiscoverX, Fremont, CA) full-length WEE1 expression construct; expressed in transfected cells; host or cells: LentiX-HEK293T (Invitrogen), lentivirally transduced; the cells also over-express GSPT1-GN
T1 sequence (P30291 whole entry): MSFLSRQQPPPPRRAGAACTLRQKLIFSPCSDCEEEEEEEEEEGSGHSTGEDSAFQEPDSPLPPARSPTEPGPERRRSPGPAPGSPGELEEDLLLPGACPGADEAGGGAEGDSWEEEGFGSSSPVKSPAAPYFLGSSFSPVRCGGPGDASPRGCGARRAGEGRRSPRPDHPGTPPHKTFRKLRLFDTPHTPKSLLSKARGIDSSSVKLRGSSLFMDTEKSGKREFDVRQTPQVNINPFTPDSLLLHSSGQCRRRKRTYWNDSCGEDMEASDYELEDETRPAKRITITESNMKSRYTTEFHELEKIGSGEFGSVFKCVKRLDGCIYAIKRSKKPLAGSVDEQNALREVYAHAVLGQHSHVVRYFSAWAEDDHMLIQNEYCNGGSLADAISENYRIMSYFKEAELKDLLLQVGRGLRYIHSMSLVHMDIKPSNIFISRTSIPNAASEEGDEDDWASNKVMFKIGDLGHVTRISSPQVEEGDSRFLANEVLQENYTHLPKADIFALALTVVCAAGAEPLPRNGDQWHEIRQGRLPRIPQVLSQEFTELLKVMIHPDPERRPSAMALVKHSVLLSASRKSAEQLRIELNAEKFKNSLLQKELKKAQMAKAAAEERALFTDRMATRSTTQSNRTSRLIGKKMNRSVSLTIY
T1 sequence (Q96SW2 whole entry): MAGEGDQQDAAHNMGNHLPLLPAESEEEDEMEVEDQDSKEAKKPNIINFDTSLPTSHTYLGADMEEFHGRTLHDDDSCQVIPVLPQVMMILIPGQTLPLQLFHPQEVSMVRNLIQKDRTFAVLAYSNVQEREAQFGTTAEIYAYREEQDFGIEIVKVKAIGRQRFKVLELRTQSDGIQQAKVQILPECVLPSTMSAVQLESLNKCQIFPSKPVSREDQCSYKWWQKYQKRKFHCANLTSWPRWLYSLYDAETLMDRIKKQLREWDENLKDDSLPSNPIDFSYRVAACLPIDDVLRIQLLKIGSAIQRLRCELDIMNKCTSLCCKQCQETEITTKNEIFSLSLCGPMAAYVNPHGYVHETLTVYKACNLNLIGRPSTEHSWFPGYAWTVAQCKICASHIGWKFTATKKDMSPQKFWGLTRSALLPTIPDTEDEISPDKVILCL
T1 sequence (Q16531 whole entry partner): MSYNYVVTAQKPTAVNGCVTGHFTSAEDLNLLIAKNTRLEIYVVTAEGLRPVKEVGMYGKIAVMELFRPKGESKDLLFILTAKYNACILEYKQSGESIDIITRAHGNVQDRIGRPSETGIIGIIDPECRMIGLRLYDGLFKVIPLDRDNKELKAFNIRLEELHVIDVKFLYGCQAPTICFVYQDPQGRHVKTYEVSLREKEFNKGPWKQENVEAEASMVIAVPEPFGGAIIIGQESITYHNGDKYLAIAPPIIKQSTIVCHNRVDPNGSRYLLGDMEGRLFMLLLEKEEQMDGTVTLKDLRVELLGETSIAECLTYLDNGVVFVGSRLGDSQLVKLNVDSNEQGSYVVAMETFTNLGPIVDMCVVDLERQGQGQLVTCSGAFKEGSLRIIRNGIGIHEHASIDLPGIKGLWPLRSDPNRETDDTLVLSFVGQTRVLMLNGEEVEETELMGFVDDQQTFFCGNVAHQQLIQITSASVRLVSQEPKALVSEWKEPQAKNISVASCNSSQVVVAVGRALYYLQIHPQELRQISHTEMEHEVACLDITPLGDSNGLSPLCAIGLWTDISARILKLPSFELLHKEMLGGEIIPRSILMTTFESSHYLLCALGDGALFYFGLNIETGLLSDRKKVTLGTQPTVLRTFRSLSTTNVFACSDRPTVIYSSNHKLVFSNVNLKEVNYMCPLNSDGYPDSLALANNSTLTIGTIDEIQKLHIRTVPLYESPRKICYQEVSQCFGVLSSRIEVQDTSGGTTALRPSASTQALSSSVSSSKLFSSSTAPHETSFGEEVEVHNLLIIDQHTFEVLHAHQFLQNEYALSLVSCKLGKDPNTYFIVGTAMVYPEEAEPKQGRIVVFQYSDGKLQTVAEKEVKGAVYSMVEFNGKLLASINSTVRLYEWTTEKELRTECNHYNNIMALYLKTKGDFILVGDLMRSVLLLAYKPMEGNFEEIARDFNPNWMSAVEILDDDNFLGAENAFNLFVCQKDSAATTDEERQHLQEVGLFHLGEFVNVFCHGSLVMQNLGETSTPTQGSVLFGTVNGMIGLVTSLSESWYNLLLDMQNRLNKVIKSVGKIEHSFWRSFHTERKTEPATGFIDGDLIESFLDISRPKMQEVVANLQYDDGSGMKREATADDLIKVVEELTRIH
Summary of the method: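 EC50 comes from a four-parameter logistic fit of ePL luminescence (InCELL Hunter), with DMSO control defining Ymax. Compounds ran as 10-point 3-fold dilutions from 1 or 10 µM for 4 h at 37 °C. Cells were HEK293T-LentiX with ePL-tagged full-length WEE1 and over-expressed Cereblon-resistant GSPT1-GN.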

MDA-MB-231 cells = test: MDA-MB-231 cell proliferation assay (Cell-Titer-Glo, 120 hr); settings: for EC50: Homo sapiens, MDA-MB-231, 120 h, read-out: MDA-MB 231 Cell Prolif. 120 hr EC50; for MDA-MB 231 Cell Prolif. 120 hr YMin (%): minimal percent of DMSO control observed
Summary of the method: as §1

SMILES | EC50 (MKN45 cells) [nM] | MKN45 Cell Prolif. 120 hr YMin (%) (MKN45 cells) | DC50 (WEE1) [nM] | 293T-LentiX WEE1-ePL Degradation 4 hr YMin (%) (WEE1) | EC50 (MDA-MB-231 cells) [nM] | MDA-MB 231 Cell Prolif. 120 hr YMin (%) (MDA-MB-231 cells)
COC[C@@H]1CN(Cc2cc(F)c3nc(C(C)(C)O)ccc3c2)C[C@H]1Oc1ccc2c(c1)CN([C@H]1CCC(=O)NC1=O)C2=O [Example 32, (3S)-3-(5-{[(3S,4S)-1-{[8-fluoro-2-(2-hydroxypropan-2-yl)quinolin-6-yl]methyl}-4-(methoxymethyl)pyrrolidin-3-yl]oxy}-1-oxo-2,3-dihydro-1H-isoindol-2-yl)piperidine-2,6-dione] | 2 | 11.2 | 1 | 33.4 | 67 | 46.8
COC[C@@H]1CN(Cc2cc3ccc(N4CCN(C(C)=O)C5(CC5)C4)cc3cn2)C[C@H]1Oc1ccc2c(c1)CN([C@H]1CCC(=O)NC1=O)C2=O [Example 88, (3S)-3-(5-{[(3S,4S)-1-[(7-{4-acetyl-4,7-diazaspiro[2.5]octan-7-yl}isoquinolin-3-yl)methyl]-4-(methoxymethyl)pyrrolidin-3-yl]oxy}-1-oxo-2,3-dihydro-1H-isoindol-2-yl)piperidine-2,6-dione] | 1 | 9.1 | 3 | 28.3 | 11 | 13.1
COC[C@@H]1CN(Cc2cc(F)c3nc(CC(C)(C)O)ncc3c2)C[C@H]1Oc1ccc2c(c1)CN([C@H]1CCC(=O)NC1=O)C2=O [Example 107, (3S)-3-(5-{[(3S,4S)-1-{[8-fluoro-2-(2-hydroxy-2-methylpropyl)quinazolin-6-yl]methyl}-4-(methoxymethyl)pyrrolidin-3-yl]oxy}-1-oxo-2,3-dihydro-1H-isoindol-2-yl)piperidine-2,6-dione] | 13 | 10.4 | 8 | 19.5 | 134 | 51.6
COC[C@@H]1CN(Cc2cc(F)c3nc(C4CN(CC(F)(F)F)C4)ncc3c2)C[C@H]1Oc1ccc2c(c1)CN([C@H]1CCC(=O)NC1=O)C2=O [Example 46, (3S)-3-(5-{[(3S,4S)-1-({8-fluoro-2-[1-(2,2,2-trifluoroethyl)azetidin-3-yl]quinazolin-6-yl}methyl)-4-(methoxymethyl)pyrrolidin-3-yl]oxy}-1-oxo-2,3-dihydro-1H-isoindol-2-yl)piperidine-2,6-dione] | 2 | 8.7 | 4 | 26.2 | 18 | 17.7
COC[C@@H]1CN(Cc2ccc3nc(C4CCN(C(C)=O)C(C)(C)C4)ncc3c2)C[C@H]1Oc1ccc2c(c1)CN([C@H]1CCC(=O)NC1=O)C2=O (stereo partly drawn) [Example 82, (3S)-3-(5-{[(3S,4S)-1-{[2-(1-acetyl-2,2-dimethylpiperidin-4-yl)quinazolin-6-yl]methyl}-4-(methoxymethyl)pyrrolidin-3-yl]oxy}-1-oxo-2,3-dihydro-1H-isoindol-2-yl)piperidine-2,6-dione] | 2 | 9.0 | 2 | 27.5 | 26 | 17.9
O=C1CC[C@H](N2Cc3cc(O[C@@H]4CN(Cc5cc(F)c6nc(N7C[C@H]8CCO[C@H]8C7)ccc6c5)CC4(F)F)ccc3C2=O)C(=O)N1 (single isomer, unassigned) [Example 14, (S)-3-(5-(((R)-4,4-difluoro-1-((8-fluoro-2-((3aR*,6aR*)-hexahydro-5H-furo[2,3-c]pyrrol-5-yl)quinolin-6-yl)methyl)pyrrolidin-3-yl)oxy)-1-oxoisoindolin-2-yl)piperidine-2,6-dione] | 6 | 10.2 | 3 | 31.8 | 63 | 34.4
COC[C@@H]1CN(Cc2cc(F)c3nc(N4CCC(C(C)(C)O)CC4)ccc3c2)C[C@H]1Oc1ccc2c(c1)CN([C@H]1CCC(=O)NC1=O)C2=O [Example 110, (3S)-3-(5-{[(3S,4S)-1-({8-fluoro-2-[4-(2-hydroxypropan-2-yl)piperidin-1-yl]quinolin-6-yl}methyl)-4-(methoxymethyl)pyrrolidin-3-yl]oxy}-1-oxo-2,3-dihydro-1H-isoindol-2-yl)piperidine-2,6-dione] | – | 6.8 | – | 27.3 | 12 | 17.4
COC[C@@H]1CN(Cc2ccc3nc(C4CCN(C5COC5)CC4)ccc3c2)C[C@H]1Oc1ccc2c(c1)CN([C@H]1CCC(=O)NC1=O)C2=O [Example 114, (3S)-3-(5-{[(3S,4S)-4-(methoxymethyl)-1-({2-[1-(oxetan-3-yl)piperidin-4-yl]quinolin-6-yl}methyl)pyrrolidin-3-yl]oxy}-1-oxo-2,3-dihydro-1H-isoindol-2-yl)piperidine-2,6-dione] | 1 | 8.6 | – | 29.7 | 14 | 47.4
COC[C@@H]1CN(Cc2ccc3nc(N4C[C@@H]5CCO[C@@H]5C4)ncc3c2)C[C@H]1Oc1ccc2c(c1)CN([C@H]1CCC(=O)NC1=O)C2=O (single isomer, unassigned) [Example 18, (S)-3-(5-(((3S,4S)-1-((2-((3aS*,6aS*)-hexahydro-5H-furo[2,3-c]pyrrol-5-yl)quinazolin-6-yl)methyl)-4-(methoxymethyl)pyrrolidin-3-yl)oxy)-1-oxoisoindolin-2-yl)piperidine-2,6-dione] | 7 | 10.1 | 3 | 29.8 | 73 | 28.4
COC[C@@H]1CN(Cc2cc(F)c3nc(C4CCCOC4)ncc3c2)C[C@H]1Oc1ccc2c(c1)CN([C@H]1CCC(=O)NC1=O)C2=O (relative stereo) [Example 78, rel-(3S)-3-(5-{[(3S,4S)-1-{[8-fluoro-2-(oxan-3-yl)quinazolin-6-yl]methyl}-4-(methoxymethyl)pyrrolidin-3-yl]oxy}-1-oxo-2,3-dihydro-1H-isoindol-2-yl)piperidine-2,6-dione] | 4 | 7.7 | 3 | 27.1 | 27 | 22.5
COC[C@@H]1CN(Cc2cc(F)c3nc(C4CCCO4)ncc3c2)C[C@H]1Oc1ccc2c(c1)CN([C@H]1CCC(=O)NC1=O)C2=O (mixture of isomers) [Example 76, rel-(3S)-3-(5-{[(3S,4S)-1-{[8-fluoro-2-(oxolan-2-yl)quinazolin-6-yl]methyl}-4-(methoxymethyl)pyrrolidin-3-yl]oxy}-1-oxo-2,3-dihydro-1H-isoindol-2-yl)piperidine-2,6-dione] | 11 | 9.4 | 41 | 25.5 | 99 | 17.9
COC[C@@H]1CN(Cc2cc(F)c3nc(N4CCN(C(C)=O)C5(CC5)C4)ccc3c2)C[C@H]1Oc1ccc2c(c1)CN([C@H]1CCC(=O)NC1=O)C2=O [Example 92, (3S)-3-(5-{[(3S,4S)-1-[(2-{4-acetyl-4,7-diazaspiro[2.5]octan-7-yl}-8-fluoroquinolin-6-yl)methyl]-4-(methoxymethyl)pyrrolidin-3-yl]oxy}-1-oxo-2,3-dihydro-1H-isoindol-2-yl)piperidine-2,6-dione] | 1 | 10.9 | 1 | 28.7 | 14 | 21.4
O=C1CC[C@H](N2Cc3cc(O[C@H]4CCN(Cc5ccc6nc([C@@H]7CCO[C@]8(CCOC8)C7)ccc6c5)C4)ccc3C2=O)C(=O)N1 (relative stereo) [Example 21, rel-(3S)-3-(5-(((3S)-1-((2-(2,6-dioxaspiro[4.5]decan-9-yl)quinolin-6-yl)methyl)pyrrolidin-3-yl)oxy)-1-oxoisoindolin-2-yl)piperidine-2,6-dione] | 2 | 9.9 | 1 | 29.8 | 129 | 41.9
COC[C@@H]1CN(Cc2cc(F)c3nc(C4CCCOC4)ccc3c2)C[C@H]1Oc1ccc2c(c1)CN([C@H]1CCC(=O)NC1=O)C2=O (relative stereo) [Example 70, rel-(3S)-3-(5-{[(3S,4S)-1-{[8-fluoro-2-(oxan-3-yl)quinolin-6-yl]methyl}-4-(methoxymethyl)pyrrolidin-3-yl]oxy}-1-oxo-2,3-dihydro-1H-isoindol-2-yl)piperidine-2,6-dione] | 1 | 11.9 | 1 | 28.9 | 18 | 26.1

Source: patent US20250197374A1, “WEE1 DEGRADING COMPOUNDS AND USES THEREOF” (BRISTOL-MYERS SQUIBB COMPANY, priority 2023, published 2025)
